The term AC50 denotes the midpoint of the concentration-response curve, whichever way the signal moves.

Among the targets are Vasopressin V1a receptor (Homo sapiens, UniProt P37288); Adenosine receptor A2a (Homo sapiens, UniProt P29274); D(3) dopamine receptor (Homo sapiens, UniProt P35462); Melanocortin receptor 3 (Homo sapiens, UniProt P41968).
The target in experiment [1] is T1, 5-hydroxytryptamine receptor 1A (Homo sapiens, UniProt P08908).
T1 sequence (P08908 whole entry): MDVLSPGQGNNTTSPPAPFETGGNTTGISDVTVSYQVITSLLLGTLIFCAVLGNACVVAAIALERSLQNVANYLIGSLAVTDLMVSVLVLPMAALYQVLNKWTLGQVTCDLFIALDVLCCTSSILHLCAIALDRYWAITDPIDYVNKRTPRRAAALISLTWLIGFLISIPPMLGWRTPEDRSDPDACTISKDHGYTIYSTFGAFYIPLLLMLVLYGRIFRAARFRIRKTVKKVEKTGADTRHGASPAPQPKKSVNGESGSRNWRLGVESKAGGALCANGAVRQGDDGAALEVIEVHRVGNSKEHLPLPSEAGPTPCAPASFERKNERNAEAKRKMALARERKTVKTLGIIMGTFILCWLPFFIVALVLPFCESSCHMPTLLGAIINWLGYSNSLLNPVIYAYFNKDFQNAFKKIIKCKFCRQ
Type of experiment: functional, cell-based.

Experiment [2] concerns the target T2, Equilibrative nucleoside transporter 1 (Homo sapiens, UniProt Q99808).
T2 sequence (Q99808 whole entry): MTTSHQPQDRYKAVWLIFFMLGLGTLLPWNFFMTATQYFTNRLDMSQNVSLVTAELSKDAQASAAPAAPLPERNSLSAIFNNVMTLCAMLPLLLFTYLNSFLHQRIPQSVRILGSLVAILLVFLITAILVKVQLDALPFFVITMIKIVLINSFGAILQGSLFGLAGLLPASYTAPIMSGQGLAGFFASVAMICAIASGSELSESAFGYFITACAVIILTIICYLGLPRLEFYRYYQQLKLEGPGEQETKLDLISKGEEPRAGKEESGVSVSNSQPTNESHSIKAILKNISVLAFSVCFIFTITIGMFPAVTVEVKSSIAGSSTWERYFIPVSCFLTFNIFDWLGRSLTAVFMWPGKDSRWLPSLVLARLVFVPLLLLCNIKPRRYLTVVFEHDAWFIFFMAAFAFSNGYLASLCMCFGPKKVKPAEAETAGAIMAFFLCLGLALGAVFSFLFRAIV

In the next experiment the target is Bile salt export pump (Homo sapiens, UniProt O95342). Type of experiment: functional.
In experiment [3] the target is Sodium-dependent dopamine transporter (Homo sapiens, UniProt Q01959).
The target in experiment [4] is T3, Type-1 angiotensin II receptor (Homo sapiens, UniProt P30556).
T3 sequence (P30556 whole entry): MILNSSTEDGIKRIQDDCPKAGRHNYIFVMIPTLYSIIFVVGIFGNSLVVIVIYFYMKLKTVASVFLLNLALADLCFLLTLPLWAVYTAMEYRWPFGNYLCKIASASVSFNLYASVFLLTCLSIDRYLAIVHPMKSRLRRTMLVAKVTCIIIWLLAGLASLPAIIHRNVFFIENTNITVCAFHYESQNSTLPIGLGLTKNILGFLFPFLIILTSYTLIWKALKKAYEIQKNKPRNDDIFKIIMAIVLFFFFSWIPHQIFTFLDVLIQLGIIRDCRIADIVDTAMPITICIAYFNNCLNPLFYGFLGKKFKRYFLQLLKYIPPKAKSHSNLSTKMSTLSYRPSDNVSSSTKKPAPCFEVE

Experiment [5] deals with Growth hormone secretagogue receptor type 1 (Homo sapiens, UniProt Q92847).
Experiment [6] has as its target 5-hydroxytryptamine receptor 2B (Homo sapiens, UniProt P41595). It counts as functional, cell-based.
Experiment [7] deals with T4, 5-hydroxytryptamine receptor 2C (Homo sapiens, UniProt P28335).
T4 sequence (P28335 whole entry): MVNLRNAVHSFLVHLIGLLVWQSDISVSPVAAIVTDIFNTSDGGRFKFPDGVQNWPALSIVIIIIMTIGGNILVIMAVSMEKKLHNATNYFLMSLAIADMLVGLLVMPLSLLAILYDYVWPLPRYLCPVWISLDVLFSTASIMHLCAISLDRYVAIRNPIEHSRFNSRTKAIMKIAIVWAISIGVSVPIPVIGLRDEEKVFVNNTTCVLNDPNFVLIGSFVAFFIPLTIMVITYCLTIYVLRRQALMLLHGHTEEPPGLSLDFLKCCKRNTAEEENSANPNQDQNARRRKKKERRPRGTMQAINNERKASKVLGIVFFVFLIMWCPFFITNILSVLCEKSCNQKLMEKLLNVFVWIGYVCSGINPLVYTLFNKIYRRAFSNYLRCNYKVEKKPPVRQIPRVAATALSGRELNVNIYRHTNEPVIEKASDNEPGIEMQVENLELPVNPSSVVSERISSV

Experiment [8] concerns the target Beta-1 adrenergic receptor (Homo sapiens, UniProt P08588). It counts as functional.
Experiment [9] deals with Gamma-aminobutyric acid receptor subunit alpha-1 (Rattus norvegicus, UniProt P62813). Type of experiment: functional.
Experiment [10] concerns the target T5, Alpha-2C adrenergic receptor (Homo sapiens, UniProt P18825).
T5 sequence (P18825 whole entry): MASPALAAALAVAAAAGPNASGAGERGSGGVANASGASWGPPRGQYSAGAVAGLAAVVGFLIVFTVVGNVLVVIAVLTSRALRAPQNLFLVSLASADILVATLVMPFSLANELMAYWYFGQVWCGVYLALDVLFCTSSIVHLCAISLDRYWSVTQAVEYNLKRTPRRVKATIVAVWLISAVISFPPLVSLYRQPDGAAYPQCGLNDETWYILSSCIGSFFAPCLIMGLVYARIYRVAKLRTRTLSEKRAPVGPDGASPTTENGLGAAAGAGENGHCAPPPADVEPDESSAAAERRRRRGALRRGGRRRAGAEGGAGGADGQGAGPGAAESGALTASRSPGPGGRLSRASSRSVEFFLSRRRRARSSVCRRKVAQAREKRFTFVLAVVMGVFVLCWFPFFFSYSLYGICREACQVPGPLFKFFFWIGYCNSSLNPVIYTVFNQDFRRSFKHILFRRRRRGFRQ
Type of experiment: functional.
Note: assay procedure not described here.

Chain of 5-hydroxytryptamine receptor 2B (P41595 whole entry): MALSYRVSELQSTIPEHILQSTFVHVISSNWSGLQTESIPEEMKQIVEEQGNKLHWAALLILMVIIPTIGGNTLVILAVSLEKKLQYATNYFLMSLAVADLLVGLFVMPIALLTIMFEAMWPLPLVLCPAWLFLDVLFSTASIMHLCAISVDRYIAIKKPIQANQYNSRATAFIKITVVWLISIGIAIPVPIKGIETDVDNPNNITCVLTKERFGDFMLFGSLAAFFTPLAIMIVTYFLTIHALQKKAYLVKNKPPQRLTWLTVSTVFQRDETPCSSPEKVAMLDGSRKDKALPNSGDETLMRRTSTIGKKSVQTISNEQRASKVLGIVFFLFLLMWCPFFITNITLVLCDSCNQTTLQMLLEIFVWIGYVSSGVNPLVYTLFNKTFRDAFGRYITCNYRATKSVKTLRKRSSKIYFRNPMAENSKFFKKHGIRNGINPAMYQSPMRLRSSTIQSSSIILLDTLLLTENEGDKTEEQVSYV
Chain of Vasopressin V1a receptor (P37288 whole entry): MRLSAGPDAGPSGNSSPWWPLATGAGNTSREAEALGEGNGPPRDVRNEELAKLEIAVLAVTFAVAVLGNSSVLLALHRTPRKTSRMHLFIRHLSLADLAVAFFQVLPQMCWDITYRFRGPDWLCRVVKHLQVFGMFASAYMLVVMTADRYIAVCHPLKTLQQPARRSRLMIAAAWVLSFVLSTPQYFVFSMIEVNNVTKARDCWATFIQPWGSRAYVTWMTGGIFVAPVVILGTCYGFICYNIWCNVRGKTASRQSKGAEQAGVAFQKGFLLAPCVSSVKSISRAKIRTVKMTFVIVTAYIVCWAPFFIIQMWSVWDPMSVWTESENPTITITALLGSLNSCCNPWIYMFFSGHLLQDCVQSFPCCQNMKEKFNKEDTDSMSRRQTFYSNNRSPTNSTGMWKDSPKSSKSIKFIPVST
Chain of Beta-1 adrenergic receptor (P08588 whole entry): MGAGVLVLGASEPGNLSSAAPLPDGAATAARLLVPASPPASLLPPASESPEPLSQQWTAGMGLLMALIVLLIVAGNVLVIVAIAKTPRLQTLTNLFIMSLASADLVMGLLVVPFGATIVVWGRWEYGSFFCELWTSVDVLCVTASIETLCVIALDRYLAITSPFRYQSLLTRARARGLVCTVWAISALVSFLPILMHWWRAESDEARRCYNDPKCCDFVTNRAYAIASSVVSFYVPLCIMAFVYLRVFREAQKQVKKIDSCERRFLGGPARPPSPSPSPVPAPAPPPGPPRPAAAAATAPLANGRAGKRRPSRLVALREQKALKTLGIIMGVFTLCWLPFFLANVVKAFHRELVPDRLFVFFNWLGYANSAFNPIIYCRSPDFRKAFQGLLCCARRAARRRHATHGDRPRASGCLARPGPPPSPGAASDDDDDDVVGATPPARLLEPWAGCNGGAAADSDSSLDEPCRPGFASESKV
Chain of D(3) dopamine receptor (P35462 whole entry): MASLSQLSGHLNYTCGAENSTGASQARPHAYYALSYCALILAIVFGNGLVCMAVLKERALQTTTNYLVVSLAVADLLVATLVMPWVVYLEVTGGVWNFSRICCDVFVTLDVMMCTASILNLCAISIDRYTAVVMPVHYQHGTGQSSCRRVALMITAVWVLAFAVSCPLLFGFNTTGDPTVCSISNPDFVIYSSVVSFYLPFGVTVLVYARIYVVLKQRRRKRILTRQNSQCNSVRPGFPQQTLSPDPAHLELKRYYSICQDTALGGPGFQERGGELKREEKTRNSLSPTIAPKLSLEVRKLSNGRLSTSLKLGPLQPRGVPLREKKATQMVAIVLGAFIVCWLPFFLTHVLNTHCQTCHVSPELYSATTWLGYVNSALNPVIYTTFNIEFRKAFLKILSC
Chain of Bile salt export pump (O95342 whole entry): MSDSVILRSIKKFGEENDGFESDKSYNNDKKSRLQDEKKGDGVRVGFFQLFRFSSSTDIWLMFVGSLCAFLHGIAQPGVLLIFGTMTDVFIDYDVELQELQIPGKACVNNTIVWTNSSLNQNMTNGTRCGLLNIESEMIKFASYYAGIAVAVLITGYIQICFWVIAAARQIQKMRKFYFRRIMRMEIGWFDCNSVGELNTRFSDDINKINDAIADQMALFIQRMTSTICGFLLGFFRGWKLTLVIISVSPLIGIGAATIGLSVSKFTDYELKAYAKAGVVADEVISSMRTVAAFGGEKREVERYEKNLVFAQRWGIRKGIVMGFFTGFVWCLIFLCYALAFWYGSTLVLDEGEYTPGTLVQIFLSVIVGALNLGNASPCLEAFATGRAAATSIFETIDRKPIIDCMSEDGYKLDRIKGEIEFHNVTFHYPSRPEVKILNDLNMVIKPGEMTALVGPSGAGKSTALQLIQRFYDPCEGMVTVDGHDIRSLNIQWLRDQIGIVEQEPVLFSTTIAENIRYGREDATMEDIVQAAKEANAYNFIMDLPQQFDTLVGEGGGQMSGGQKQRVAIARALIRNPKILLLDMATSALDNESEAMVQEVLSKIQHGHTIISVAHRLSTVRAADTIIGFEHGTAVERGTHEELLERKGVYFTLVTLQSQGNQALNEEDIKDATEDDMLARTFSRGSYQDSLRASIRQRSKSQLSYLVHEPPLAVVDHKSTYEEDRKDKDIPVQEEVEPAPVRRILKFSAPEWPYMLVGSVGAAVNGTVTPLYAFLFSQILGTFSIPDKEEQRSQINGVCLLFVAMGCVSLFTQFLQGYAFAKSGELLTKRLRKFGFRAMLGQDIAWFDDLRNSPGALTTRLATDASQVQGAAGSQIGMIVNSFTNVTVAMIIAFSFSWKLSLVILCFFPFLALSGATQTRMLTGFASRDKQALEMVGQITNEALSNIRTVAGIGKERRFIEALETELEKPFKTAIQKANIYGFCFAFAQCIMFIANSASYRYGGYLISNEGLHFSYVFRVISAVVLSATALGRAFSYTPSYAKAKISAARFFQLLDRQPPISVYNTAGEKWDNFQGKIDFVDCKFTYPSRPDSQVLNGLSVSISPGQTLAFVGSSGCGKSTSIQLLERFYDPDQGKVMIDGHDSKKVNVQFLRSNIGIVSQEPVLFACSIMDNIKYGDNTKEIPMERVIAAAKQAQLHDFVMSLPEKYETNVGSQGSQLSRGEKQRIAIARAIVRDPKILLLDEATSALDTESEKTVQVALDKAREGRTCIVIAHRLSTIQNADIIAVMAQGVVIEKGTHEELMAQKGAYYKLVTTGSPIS
Chain of Gamma-aminobutyric acid receptor subunit alpha-1 (P62813 whole entry): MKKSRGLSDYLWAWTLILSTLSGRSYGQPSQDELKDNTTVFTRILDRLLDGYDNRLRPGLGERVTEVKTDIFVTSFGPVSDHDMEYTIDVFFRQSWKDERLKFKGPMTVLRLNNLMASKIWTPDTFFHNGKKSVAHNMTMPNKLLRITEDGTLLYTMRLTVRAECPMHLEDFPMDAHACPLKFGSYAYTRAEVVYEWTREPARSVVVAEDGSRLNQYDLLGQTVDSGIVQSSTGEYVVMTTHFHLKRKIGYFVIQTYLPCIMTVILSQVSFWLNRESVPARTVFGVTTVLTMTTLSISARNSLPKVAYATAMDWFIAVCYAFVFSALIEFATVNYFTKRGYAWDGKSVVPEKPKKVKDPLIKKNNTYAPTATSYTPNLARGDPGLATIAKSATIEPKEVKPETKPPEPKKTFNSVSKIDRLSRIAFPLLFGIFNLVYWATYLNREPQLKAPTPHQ
Chain of Melanocortin receptor 3 (P41968 whole entry): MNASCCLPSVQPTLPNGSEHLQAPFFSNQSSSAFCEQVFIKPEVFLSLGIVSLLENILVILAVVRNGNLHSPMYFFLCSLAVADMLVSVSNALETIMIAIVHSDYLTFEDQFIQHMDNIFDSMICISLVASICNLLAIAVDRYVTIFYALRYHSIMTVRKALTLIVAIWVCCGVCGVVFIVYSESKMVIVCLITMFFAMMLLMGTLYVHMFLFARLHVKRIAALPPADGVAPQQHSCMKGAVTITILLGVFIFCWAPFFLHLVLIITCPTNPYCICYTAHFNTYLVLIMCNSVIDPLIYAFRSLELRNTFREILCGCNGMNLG
Chain of Sodium-dependent dopamine transporter (Q01959 whole entry): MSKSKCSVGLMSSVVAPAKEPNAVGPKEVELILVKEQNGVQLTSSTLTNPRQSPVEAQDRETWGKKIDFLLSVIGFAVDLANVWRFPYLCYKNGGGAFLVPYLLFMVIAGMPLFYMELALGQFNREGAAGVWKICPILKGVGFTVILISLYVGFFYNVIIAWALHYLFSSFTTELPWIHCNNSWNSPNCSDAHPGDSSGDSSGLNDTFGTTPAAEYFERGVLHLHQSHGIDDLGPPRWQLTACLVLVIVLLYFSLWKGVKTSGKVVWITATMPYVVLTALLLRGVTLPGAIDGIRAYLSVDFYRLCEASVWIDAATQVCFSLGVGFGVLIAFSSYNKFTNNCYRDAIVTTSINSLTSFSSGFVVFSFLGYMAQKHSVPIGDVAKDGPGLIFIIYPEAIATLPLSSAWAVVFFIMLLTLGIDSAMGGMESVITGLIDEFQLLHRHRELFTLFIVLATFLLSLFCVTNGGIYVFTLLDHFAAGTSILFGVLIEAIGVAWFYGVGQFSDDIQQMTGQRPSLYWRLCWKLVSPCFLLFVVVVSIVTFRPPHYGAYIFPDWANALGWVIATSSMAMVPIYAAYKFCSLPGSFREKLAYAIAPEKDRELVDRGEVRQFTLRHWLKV
Chain of Adenosine receptor A2a (P29274 whole entry): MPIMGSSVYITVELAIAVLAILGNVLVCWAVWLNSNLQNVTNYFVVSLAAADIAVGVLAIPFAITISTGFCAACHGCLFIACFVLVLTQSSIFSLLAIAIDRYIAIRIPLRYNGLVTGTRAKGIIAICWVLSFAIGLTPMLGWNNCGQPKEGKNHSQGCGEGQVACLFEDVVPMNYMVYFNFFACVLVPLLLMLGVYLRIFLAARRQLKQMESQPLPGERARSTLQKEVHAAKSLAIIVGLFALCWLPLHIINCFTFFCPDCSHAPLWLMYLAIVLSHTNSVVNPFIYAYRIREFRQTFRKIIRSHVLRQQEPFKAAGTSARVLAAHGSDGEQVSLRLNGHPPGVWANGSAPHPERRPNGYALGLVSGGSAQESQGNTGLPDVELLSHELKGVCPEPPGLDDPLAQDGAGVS

Regarding `Cc1c(C(=O)NN2CCCCC2)nn(-c2ccc(Cl)cc2Cl)c1-c1ccc(Cl)cc1` [RIMONABANT], the half-maximal activity concentration (AC50) at Vasopressin V1a receptor was 30 µM; in [1], above 30 µM; on Adenosine receptor A2a, above 30 µM; in [2], 20.1 µM; at Bile salt export pump, 11.6 µM; at D(3) dopamine receptor, 15 µM. Also, the AC50 in [3] is 23 µM; in experiment [4], 16.9 µM; in experiment [5], 25 µM; in experiment [6], above 30 µM; in [7], above 30 µM; at Melanocortin receptor 3, 15.9 µM. Moreover, the half-maximal activity concentration (AC50) in experiment [8] is above 30 µM; in experiment [9] it was above 30 µM; in experiment [10], 13 µM.

On to `CO[C@H]1C[C@@H]2CC[C@@H](C)[C@@](O)(O2)C(=O)C(=O)N2CCCC[C@H]2C(=O)O[C@H]([C@H](C)C[C@@H]2CC[C@@H](O)[C@H](OC)C2)CC(=O)[C@H](C)/C=C(\C)[C@@H](O)[C@@H](OC)C(=O)[C@H](C)C[C@H](C)/C=C/C=C/C=C/1C` [SIROLIMUS], for which the AC50 at Vasopressin V1a receptor is above 30 µM; in experiment [1] it was above 10 µM; at Adenosine receptor A2a it was above 30 µM; in experiment [2], 6.8 µM; at Bile salt export pump, 1.01 µM; on D(3) dopamine receptor, 0.87 µM. Besides, the AC50 was above 30 µM in experiment [3]; above 30 µM in experiment [4]; above 30 µM in experiment [5]; above 10 µM in experiment [6]; above 30 µM in experiment [7]; above 30 µM on Melanocortin receptor 3. The AC50 in experiment [8], in experiment [9] and in experiment [10] was above 10 µM each time.

As to `Cc1cn([C@H]2C=C[C@@H](CO)O2)c(=O)[nH]c1=O` [STAVUDINE], the concentration at half-maximal activity (AC50) on Vasopressin V1a receptor is above 10 µM; in experiment [1], above 10 µM; at Adenosine receptor A2a it was above 30 µM; in experiment [2], above 30 µM; on Bile salt export pump, above 300 µM; on D(3) dopamine receptor, above 10 µM. Moreover, the concentration at half-maximal activity (AC50) was above 10 µM in experiment [3]; above 30 µM in [4]; above 30 µM in experiment [5]; above 10 µM in [6]; above 30 µM in experiment [7]; above 30 µM at Melanocortin receptor 3. Moreover, the half-maximal activity concentration (AC50) in experiment [8], in experiment [9] and in experiment [10] was above 10 µM each time.

On to `Cn1nnc2c(C(N)=O)ncn2c1=O` [TEMOZOLOMIDE], for which the AC50 is above 30 µM at Vasopressin V1a receptor; above 30 µM in experiment [1]; above 30 µM on Adenosine receptor A2a; above 30 µM in experiment [2]; above 300 µM on Bile salt export pump; above 30 µM at D(3) dopamine receptor. For the same compound, the half-maximal activity concentration (AC50) (in experiment [3]; in experiment [4]; in experiment [5]; in experiment [6]; in experiment [7]; at Melanocortin receptor 3) was above 30 µM in each case. Moreover, the AC50 in [8], in experiment [9] and in experiment [10] was above 30 µM each time.

For `Clc1ccc2nsnc2c1NC1=NCCN1` [TIZANIDINE], the AC50 at Vasopressin V1a receptor is above 10 µM; in experiment [1], above 30 µM; on Adenosine receptor A2a, above 30 µM; in [2], above 30 µM; on Bile salt export pump it was above 300 µM; at D(3) dopamine receptor it was above 10 µM. Besides, the AC50 in experiment [3] is above 10 µM; in experiment [4] it was above 30 µM; in experiment [5], above 30 µM; in [6], above 30 µM; in experiment [7], above 30 µM; on Melanocortin receptor 3 it was above 30 µM. Further, the concentration at half-maximal activity (AC50) is above 10 µM in experiment [8], above 10 µM in [9] and 1.31 µM in experiment [10].

Take `O=C(O[C@H]1C[C@H]2CC[C@@H](C1)[N+]21CCCC1)C(O)(c1ccccc1)c1ccccc1` [TROSPIUM]: the concentration at half-maximal activity (AC50) on Vasopressin V1a receptor is above 30 µM; in [1], above 30 µM; on Adenosine receptor A2a, above 30 µM; in experiment [2], above 30 µM; at Bile salt export pump it was above 300 µM; on D(3) dopamine receptor, above 30 µM. The AC50 (in experiment [3]; in experiment [4]; in experiment [5]; in experiment [6]; in experiment [7]; on Melanocortin receptor 3) was above 30 µM throughout. In addition, the AC50 in experiment [8], in [9] and in experiment [10] was above 30 µM each time.

Take `N[C@@H]1[C@H]2CN(c3nc4c(cc3F)c(=O)c(C(=O)O)cn4-c3ccc(F)cc3F)C[C@@H]12` [TROVAFLOXACIN]: the AC50 at Vasopressin V1a receptor was above 30 µM; in experiment [1], above 30 µM; on Adenosine receptor A2a it was above 30 µM; in experiment [2] it was above 30 µM; at Bile salt export pump, above 300 µM; on D(3) dopamine receptor, above 30 µM. Further, the AC50 (in [3]; in experiment [4]; in experiment [5]; in experiment [6]; in experiment [7]; at Melanocortin receptor 3) was above 30 µM each time. The AC50 in experiment [8], in experiment [9] and in [10] was above 30 µM in each case.

Consider `Nc1ccn([C@H]2CC[C@@H](CO)O2)c(=O)n1` [ZALCITABINE], for which the AC50 was above 10 µM on Vasopressin V1a receptor; above 10 µM in experiment [1]; above 10 µM on Adenosine receptor A2a; above 10 µM in experiment [2]; above 300 µM at Bile salt export pump; above 10 µM on D(3) dopamine receptor. Besides, the AC50 is above 10 µM in experiment [3]; above 10 µM in experiment [4]; above 10 µM in experiment [5]; above 10 µM in experiment [6]; above 30 µM in experiment [7]; above 10 µM on Melanocortin receptor 3. For the same compound, the concentration at half-maximal activity (AC50) in experiment [8], in [9] and in experiment [10] was above 10 µM throughout.
